# Test system: brown rust of wheat (Puccinia recondita)
# Assay: Protective treatment against brown rust of wheat (plants sprayed the day before inoculation)
# Type: in vivo, Puccinia recondita on wheat seedlings cultivar "Kanzler"
# Settings: 63 ppm active compound, assessed visually after a further 7 days in greenhouse, untreated 90
# Experimental: The active compounds were prepared as a stock solution comprising 0.25% by weight of active compound in acetone or dimethyl sulfoxide (DMSO). 1% by weight of the emulsifier Uniperol® EL (wetting agent having emulsifying and dispersant action based 10 on ethoxylated alkylphenols) was added to this solution, and the mixture was diluted with water to the desired concentration.
# Leaves of potted wheat seedlings of the cultivar “Kanzler” were sprayed to runoff point with an aqueous suspension having the concentration of active compound stated below. The next day, the treated plants were dusted with spores of brown rust of wheat (Puccinia recondita). The plants were then placed in a chamber with high atmospheric humidity (90 to 95%), at 20-22° C., for 24 hours. During this time, the spores germinated and the germinal tubes penetrated into the leaf tissue. The next day, the test plants were returned into the greenhouse and cultivated at temperatures between 20 and 22° C. and at 65 to 70% relative atmospheric humidity for a further 7 days. The extent of the rust development on the leaves was then determined visually.
smiles,measurement,value
"CC(=NOCc1ccccc1)C(C)Oc1ccccc1NC(=O)c1cccnc1Cl (stereo not shown) [IA-1, 2-Chloro-N-(2-(2-benzyloxyimino-1-methyl-n-propoxy)phenyl)nicotinamide]",Infection at 63 ppm (% of leaf area),10 % of leaf area
